Results reported in patent US11850237B2, “Compounds and methods for treating influenza” (priority 2009, dated 2023).
Converted amounts (≈) assume the structure as drawn. Where two headings read alike, the source gives them in different places.

Legend:
[1] = tested on: human low-density lipoprotein receptor (LDLR); assay: Plasma membrane targeting of LDLR in transfected MDCK cells; assay type: cell-based; conditions: LDLR-A18-GFP transfected MDCK cells, TIZ 10 μg/ml for 16 h
Source text: For transfection experiments, MDCK cells plated in LabTekII coverglass chambers (Nunch-Thermo Fisher Scientific Inc.) were transiently transfected with green fluorescent protein (GFP)-tagged internalization-defective human low-density lipoprotein receptor (hLDLR) mutant (LDLR-A18-GFP plasmid, kindly provided by E. Rodriguez-Boulan, Cornell University New York, NY), using Lipofectamine 2000 (Invitrogen) according to the manufacturer's instructions.
For detection of plasma membrane targeting of human low-density lipoprotein receptor (hLDLR), MDCK cells plated in coverglass chambers were transiently transfected with GFPtagged internalization-defective hLDLR mutant (LDLR-A18-GFP plasmid) and, after 8 h, treated with TIZ (10 μg/ml) or vehicle for the following 16 h. After blocking protein synthesis with 100 μg/ml cycloheximide (Sigma-Aldrich) for 1 h, plasma membranes were stained using CellMask™ Orange plasma membrane stain (Molecular Probes, Invitrogen). After staining, cells were examined using a Leica DM-IL fluorescence microscope equipped with UV excitation filters. The images were captured with a Leica DC-300 camera using Leica Image-Manager500 software.

H1N1 A/PR/8/34 (PR8) = assay: microbe, parasite or virus in culture; assay type: cell-based, influenza A virus; conditions: for EC50 / EC90: Influenza A virus; for EC90: read-out: Virus Yield EC90; for antiviral activity against PR8, overall rating: PR8 influenza A virus, Table 1
[2] = tested on: H3N2 A/Firenze/7/03 (A/FI); assay type: cell-based, influenza A virus; conditions: MDCK cells, 10 μg/ml TIZ
[3] = tested on: influenza A virus (PR8 in U937 and Jurkat, WSN in A549 cells); assay: Influenza A virus replication in human cells (U937, Jurkat, A549); assay type: cell-based; conditions: monocytic U937, T-lymphocytic Jurkat and alveolar type II-like A549 cells, read-out: EC50, inhibition of influenza A virus replication in human cells
[4] = tested on: influenza B virus, B/Parma/3/04; assay type: cell-based; conditions: B/Parma/3/04 influenza B, MDCK cells, 10 μg/ml TIZ
[5] = tested on: H5N9 low-pathogenicity avian strain A/Ck/It/9097/97 (A/Ck); assay: microbe, parasite or virus in culture; assay type: cell-based; conditions: Influenza A virus, H5N9, MDCK, 24 h, read-out: EC50, inhibition of virus replication
A/WSN/33 (WSN) = assay: microbe, parasite or virus in culture; assay type: cell-based; conditions: Influenza A virus, MDCK, 24 h, read-out: EC50, inhibition of virus replication
[6] = Toxicity / cell viability by MTT in uninfected MDCK cells; assay type: cell-based, canine; conditions: dog, uninfected MDCK cells; uninfected cells
Procedure: (§1) Cell culture, treatment and transfection-Madin-Darby canine kidney (MDCK) cells, and human A549 alveolar type II-like epithelial, Jurkat Tlymphoblastoid and U397 monocytic leukemia cells were grown at 37° C. in a 5% CO2 atmosphere in RPMI 1640 (Invitrogen), supplemented with 10% fetal calf serum (FCS), 2 mM glutamine and antibiotics. Test compounds were added immediately after 1-hour adsorption period, and kept in the culture medium for the entire time of the experiment, unless differently specified. […] Cell viability was determined by the 3-(4,5-dimethylthiazol-2-yl)-2,5-diphenyltetrazolium bromide (MTT) to MTT formazan conversion assay (Sigma-Aldrich) as described previously. Microscopical examination of mock-infected or virus-infected cells was performed using a Leica DM-IL microscope and images were captured on a Leica DC 300 camera using Leica Image-Manager500 software.

MDCK cells [7] = assay: as above; assay type: cell-based, canine; conditions: MDCK cells, MTT
Procedure: as §1

PR8 virus = assay type: cell-based, influenza A virus
MDCK cells [8] = assay: Host protein synthesis, eIF2α phosphorylation and Grp78/BiP in MDCK cells; assay type: cell-based, canine
Procedure: Metabolic labeling, analysis of protein synthesis and Western Blot Mock-infected or influenza virus-infected cells were labeled with 10 μCi/ml of [35S]-methionine-cysteine ([35S]-Met/Cys, Redivue Pro-Mix 35S in vitro cell-labeling mix; GE Healthcare) for the indicated times after 30 min. starvation in methionine/cysteine-free medium. For pulse/chase experiments, cells were labeled [35S]-Met/Cys (100 μCi/ml) for 15 min., after 30 min. starvation in methionine/cysteine-free medium. At the end of pulse, cells were chased in complete medium containing 10 mM cold methionine and 1 mM cycloheximide for different times in the absence or presence of TIZ. The pulse/chase were terminated by placing the cells on ice. After cell lysis in RIPA buffer (150 mM NaCl, 10 mM Tris-HCl pH 7.5, 4 mM EDTA, 1% Triton X-100, 600 mM KCl), containing 1 mM phenylmethylsulphonyl fluoride (PMSF) and a protease inhibitor cocktail (PIC; Roche Diagnostics GmbH), samples containing the same amount of radioactivity were separated by SDS/PAGE (3% stacking gel, 10% resolving gel) and processed for autoradiography, as described. Autoradiographic patterns were visualized and quantified in Typhoon-8600 Imager (Molecular Dynamics, Amersham Pharmacia Biotech) and images were acquired using ImageQuant software (Amersham Pharmacia Biotech) (MDP analysis).
For Western blot analysis, cells were lysed with cold high-salt extraction (HSB) buffer containing 2 mM dithiothreitol (DTT), 1 mM PMSF, 1 mM orthovanadate, 20 mM β-glycerophosphate, 1 mM p-nitrophenyl phosphate (pNPP) and PIC, or with RIPA buffer, containing 1 mM PMSF and PIC. […] Quantitative evaluation of proteins was determined by Versadoc-1000 analysis using the Quantity One software program, available through BIO-RAD Laboratories.

[9] = target: viral hemagglutinin (HA0) (Influenza A virus, UniProt P03452); assay type: cell-based
Chain of viral hemagglutinin (HA0) (Influenza A virus, UniProt P03452) (P03452 18-565 limits assumed): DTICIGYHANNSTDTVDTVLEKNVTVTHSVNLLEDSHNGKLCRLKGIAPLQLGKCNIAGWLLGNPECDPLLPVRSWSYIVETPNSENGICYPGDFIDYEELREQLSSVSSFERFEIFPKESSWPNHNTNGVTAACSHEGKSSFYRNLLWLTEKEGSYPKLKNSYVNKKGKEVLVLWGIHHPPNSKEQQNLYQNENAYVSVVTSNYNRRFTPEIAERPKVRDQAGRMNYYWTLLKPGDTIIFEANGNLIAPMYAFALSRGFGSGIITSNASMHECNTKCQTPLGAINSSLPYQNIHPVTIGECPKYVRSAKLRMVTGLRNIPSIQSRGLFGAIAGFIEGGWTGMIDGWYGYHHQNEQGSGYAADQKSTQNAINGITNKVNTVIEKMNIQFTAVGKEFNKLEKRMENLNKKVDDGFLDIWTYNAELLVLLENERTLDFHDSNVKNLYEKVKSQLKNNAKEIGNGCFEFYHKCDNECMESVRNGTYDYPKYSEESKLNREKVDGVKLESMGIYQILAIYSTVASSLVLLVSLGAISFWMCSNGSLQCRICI

[10] = tested on: viral hemagglutinin (HA0); assay type: cell-based, influenza A virus; conditions: for HA0 maturation in other host cells and strains: WSN in A549 cells, A/Ck and PR8 in MDCK cells
[11] = tested on: Respiratory syncytial virus; assay: Activity against other respiratory viruses: Respiratory syncytial virus; assay type: cell-based; conditions: human respiratory syncytial virus
Coronavirus = assay: Activity against other respiratory viruses: Coronavirus; assay type: cell-based
[12] = tested on: H1N1 A/PR/8/34 (PR8) virus; assay: microbe, parasite or virus in culture; assay type: cell-based, influenza A virus; conditions: for EC50: Influenza A virus, MDCK, 24 h; for PR8 Yield: no zanamivir (Control)
Rhinovirus = assay: Activity against other respiratory viruses: Rhinovirus; assay type: cell-based, human rhinovirus; conditions: Enterovirus
Adenovirus = assay: Activity against other respiratory viruses: Adenovirus; assay type: cell-based; conditions: unidentified adenovirus
[13] = tested on: H1N1 A/PR/8/34 (PR8) virus; assay: microbe, parasite or virus in culture; assay type: cell-based, influenza A virus; conditions: Influenza A virus, MDCK, 24 h
influenza = assay: Clinical trials, treatment of influenza; assay type: in vivo, human; conditions: orally 300 mg or 600 mg twice daily for 5 days
Procedure: Low dose administration of thiazolides such as NTZ to treat virus infection. NTZ can be administered orally at a dose of 300 mg or 600 mg twice daily for 5 days as a treatment of influenza. […] Preferably, the dosage of nitazoxanide is 300 mg twice daily for 5 days, which is less than the dosage of NTZ needed to treat intestinal infections, thereby enabling a reduction of side effects associated with higher dosages. Thiazolides can also be administered as a modified release bi-layer tablet. As such, thiazolides can be administered in 100 mg, 200 mg, 300 mg, 400 mg, 500 mg or 600 mg doses twice daily for 5 days to treat virus infection.

Parainfluenza = assay: Activity against other respiratory viruses: Parainfluenza; assay type: cell-based
[14] = Double-blind placebo controlled trials in influenza-like illness; assay type: in vivo, human
Procedure: Evaluation of the effect of twice daily nitazoxanide for 5 days on the duration of symptoms in pediatric patients and adults with influenza-like illnesses was conducted. Two double-blind placebo controlled trials were conducted. Children 12 months-11 years of age were given NTZ suspension (n=100, 50 per group) and Patients ≥12 years of age were given NTZ 500 mg tablets (n=86, 43 per group). Single center trials were conducted. Studies were based on TAMIFLU® trials. The trials followed specific Inclusion/exclusion criteria. Inclusion required children age 1-11 years of patients ≥12 years of age with a fever >100° F. with ≥1 respiratory symptom (including cough, nasal discharge, sneezing, sore throat, etc.) and/or with ≥1 constitutional symptom (myalgia, malaise, fatigue, headache, chills/sweat, etc.). Major exclusions included symptom duration ≥72 hours, pregnancy or breastfeeding, concurrent antibiotics/antiviral medication, or a history of asthma or other pulmonary disease.
Patients were randomized to receive NTZ or placebo b.i.d. for 5 days. Nasopharyngeal swab collected at baseline for rapid direct immunofluorescence assay (SimulFluor respiratory Screen) for 7 viruses (RSV, Influenza A & B, Parainfluenza 1-3, and Adenovirus). Symptoms recorded in a daily diary by the patient (or parent) with each symptom graded on a scale of 0 to 3: absent, mild, moderate, severe. Tissue was stored in a ziplock plastic bag and collected daily by study personnel for weighing. A follow up physical examination was conducted on day 7. The primary endpoint was the time from baseline to each symptom returning to absent or mild (<2). Secondary endpoints include antibiotic use, day 7 respiratory symptoms, daily tissue/mucus weight.

[15] = Cytotoxicity (CC50) in the other respiratory virus assays
[16] = MDCK, 24 h, read-out: EC50, inhibition of virus replication
[17] = PR8, MDCK cells, read-out: Virus Yield EC50

O=C(Nc1ncc([N+](=O)[O-])s1)c1ccccc1O [Compound 2, tizoxanide]
plasma membrane targeting of LDLR [1]: did not inhibit plasma membrane targeting of LDLR | effect on virus replication under multi- and single-step virus growth (H1N1 A/PR/8/34 (PR8); H1N1 PR8, MDCK cells, 10 μg/ml TIZ, m.o.i. 10 or 0.001 ffu/cell): dramatic block | EC50 (H1N1 A/PR/8/34 (PR8); [16]): 1 µg/mL | EC50 (H1N1 A/PR/8/34 (PR8); [17]): 1 µg/mL | EC90 (H1N1 A/PR/8/34 (PR8); PR8, MDCK cells): 9 µg/mL (≈ 33.9 µM) | antiviral activity against PR8, overall rating (H1N1 A/PR/8/34 (PR8)): potent and selective | inhibition of virus replication [2]: very effective | EC50 [3]: 0.3 µg/mL (≈ 1.13 µM) | inhibition of virus replication [4]: very effective | EC50 [5]: 0.5 µg/mL (≈ 1.89 µM) | EC50 (A/WSN/33 (WSN)): 0.5 µg/mL (≈ 1.89 µM) | CC50 [6]: > 50 µg/mL | Toxicity LD50 (MTT) (MDCK cells [7]): >50 µg/mL | effect on influenza virus replication (PR8 virus): had no effect | time after infection for which a single administration inhibits virus replication (PR8 virus; single administration after virus adsorption, 10 μg/ml, PR8, MDCK cells): at least 48 h | effect on virus replication (PR8 virus; treatment of cells only during the adsorption period): did not inhibit virus replication | expression of Grp78/BiP (unfolded protein response marker) (MDCK cells [8]; MDCK cells): did not induce the expression | host protein synthesis (MDCK cells [8]; [35S]-Met/Cys incorporation, 10 μg/ml TIZ): did not inhibit host protein synthesis | phosphorylation of eukaryotic initiation factor 2α (eIF2-α) (MDCK cells [8]; uninfected or PR8-infected cells): did not affect phosphorylation | Endo-H sensitivity of HA0 [9]: remained sensitive to digestion | HA0 glycosylation (glucosamine, mannose incorporation) [9]: did not decrease glucosamine and actually increased mannose incorporation | HA0 trimer formation [9]: did not prevent HA0 ability to form trimers | change in influenza virus protein synthesis pattern (HA0 band) [9]: disappearance of a band of approximately 79 kDa | intracellular HA0 levels / accumulation [9]: did not reduce intracellular HA0 levels | plasma membrane levels of viral hemagglutinin [9]: dramatically decreased | viral proteins in purified virions from supernatant ([10]; PR8-infected cells, 24 h p.i.): could not be detected | HA0 maturation in other host cells and strains [10]: able to inhibit HA0 maturation

CC(=O)Oc1ccccc1C(=O)Nc1ncc([N+](=O)[O-])s1 [Compound 1, nitazoxanide]
EC50 [11]: 0.5 µg/mL (≈ 1.63 µM) | EC50 (Coronavirus): 1 µg/mL (≈ 3.25 µM) | EC50 (H1N1 A/PR/8/34 (PR8); [16]): 1 µg/mL | EC50 (H1N1 A/PR/8/34 (PR8); MDCK, PR8 virus, separate studies, read-out: EC50 (molar equivalent)): 3.3 µM | EC50 (H1N1 A/PR/8/34 (PR8); [17]): 1 µg/mL | EC90 (H1N1 A/PR/8/34 (PR8); PR8, MDCK cells): 7 µg/mL (≈ 22.8 µM) | antiviral activity against PR8, overall rating (H1N1 A/PR/8/34 (PR8)): potent and selective | EC50 ([12]; read-out: EC50 of NTZ in the experiments with zanamivir): 0.66 µg/mL | EC50 ([12]; read-out: EC50 of NTZ in the experiments with zanamivir (molar equivalent)): ~2.2 µM | PR8 Yield ([12]; Nitazoxanide 0.1 μg/ml): 48 HAU/ml | PR8 Yield ([12]; Nitazoxanide 1 μg/ml): 16 HAU/ml | EC50 [5]: 1 µg/mL (≈ 3.25 µM) | EC50 (Rhinovirus): > 10 µg/mL | EC50 (Adenovirus): 0.2 µg/mL (≈ 0.651 µM) | EC50 (A/WSN/33 (WSN)): 0.5 µg/mL (≈ 1.63 µM) | CC50 [6]: > 50 µg/mL | Toxicity LD50 (MTT) (MDCK cells [7]): >50 µg/mL | EC50 ([13]; read-out: EC50 of NTZ in the experiments with oseltamivir): 1 µg/mL | EC50 ([13]; read-out: EC50 of NTZ in the experiments with oseltamivir (molar equivalent)): 3.3 µM | treatment of influenza in clinical trials (influenza): has the ability to treat influenza | EC50 (Parainfluenza): 0.5 µg/mL (≈ 1.63 µM) | respiratory symptoms, Day 7 Physical Exam ([14]; influenza-like illness, FIG. 13): reduces respiratory symptoms | resolution of symptoms associated with influenza-like illness ([14]; subjects not positive for Adenovirus, RSV, Influenza A, Parainfluenza 1, FIG. 12): can resolve symptoms | treatment of patients with influenza like illness ([14]; twice daily for 5 days vs placebo, patients mostly negative for Adenovirus, RSV, Influenza A, Parainfluenza 1): has the ability to treat patients | CC50 [15]: > 50 µg/mL | CC50 ([15]; Adenovirus line of Table 3): >50 µg/mL | CC50 ([15]; Coronavirus line of Table 3): >50 µg/mL | CC50 ([15]; Respiratory syncytial virus line of Table 3): >50 µg/mL | CC50 ([15]; Rhinovirus line of Table 3): >50 µg/mL | HA0 maturation in other host cells and strains [10]: caused similar alterations
